Measurements as given in ChEMBL document CHEMBL3997807, “Isatin-β-thiocarbohydrazones: Microwave-assisted synthesis, antitumor activity and structure-activity relationship” (Eur J Med Chem, 2017).

What was measured:
HeLa = assay: Growth inhibition of human HeLa cells by MTT assay; format: functional, cell-based
COS-7 = assay: Growth inhibition of African green monkey COS7 cells by MTT assay; format: functional, cell-based; conditions: Chlorocebus aethiops
Ehrlich [1] = assay: Antitumor activity against mouse EAC cells implanted in Swiss albino mouse assessed as RBC count in blood at 0.5 mg for 9 days (reference value: 3.69 10^6/mm3); format: functional
Ehrlich [2] = assay: Antitumor activity against mouse EAC cells implanted in Swiss albino mouse assessed as WBC count in blood at 0.5 mg for 9 days (reference value: 23.96 10^3/mm3); format: functional
Ehrlich [3] = assay: Antitumor activity against mouse EAC cells implanted in Swiss albino mouse assessed as increase in mean life span at 0.5 mg for 9 days relative to control; format: functional
Ehrlich [4] = assay: Antitumor activity against mouse EAC cells implanted in Swiss albino mouse assessed as hemoglobin count in blood at 0.5 mg for 9 days (reference value: 8.15 g/dL); format: functional
Ehrlich [5] = assay: Antitumor activity against mouse EAC cells implanted in Swiss albino mouse assessed as viable tumor cell count in ascitic fluid at 0.5 mg for 9 days (reference value: 83.2 10^6/100uL); format: functional
Ehrlich [6] = assay: Antitumor activity against mouse EAC cells implanted in Swiss albino mouse assessed as tumor volume in ascitic fluid at 0.5 mg for 9 days (reference value: 9.85 mL); format: functional

SMILES	IC50 (HeLa) [µM]	IC50 (COS-7) [µM]	Activity (Ehrlich [1]) [×10⁶ /mm3]	Activity (Ehrlich [2]) [×10³ /mm3]	ILS (Ehrlich [3]) [%]	Activity (Ehrlich [4]) [g/dL]	Activity (Ehrlich [5]) [×10⁶ /100microL]	Activity (Ehrlich [6]) [mL]
COc1ccc(/C=N/NC(=S)N/N=C2\C(=O)Nc3ccc(C)cc32)c(OC)c1	> 50	> 50	–	–	–	–	–	–
O=C1Nc2ccc(Br)cc2/C1=N/NC(=S)N/N=C/c1c(F)cccc1Cl	1.61	2.56	4.09	13.05	72.4	9.96	57.5	6.7
COc1ccc(/C=N/NC(=S)N/N=C2\C(=O)Nc3ccc(Br)cc32)cc1O	2.22	3.09	3.86	19.48	24.1	9.11	66.78	7.8
Cc1ccc2c(c1)/C(=N/NC(=S)N/N=C/c1ccc(Br)cc1)C(=O)N2	> 50	> 50	–	–	–	–	–	–
Cc1ccc2c(c1)/C(=N/NC(=S)N/N=C/c1c(F)cccc1Cl)C(=O)N2	1.51	2.19	4.19	12.26	72.4	10.09	51.52	6.2
COc1ccc(/C=N/NC(=S)N/N=C2\C(=O)Nc3ccc(Br)cc32)c(OC)c1	> 50	> 50	–	–	–	–	–	–
COc1ccc(/C=N/NC(=S)N/N=C2\C(=O)Nc3ccc(C)cc32)cc1O	2.73	3.19	4.46	9.23	110.9	11.15	38.75	3.26
O=C1Nc2ccc(Br)cc2/C1=N/NC(=S)N/N=C/c1ccccc1Br	> 50	> 50	–	–	–	–	–	–
O=C1Nc2ccc(Br)cc2/C1=N/NC(=S)N/N=C/c1ccc(-c2ccccc2)cc1	3.25	> 50	–	–	–	–	–	–
Cc1ccc2c(c1)/C(=N/NC(=S)N/N=C/c1cc3ccccc3c3ccccc13)C(=O)N2	> 50	> 50	–	–	–	–	–	–
O=C1Nc2ccc(Br)cc2/C1=N/NC(=S)N/N=C/c1ccc(Br)cc1	4.68	5.18	–	–	–	–	–	–
Cc1ccc(O)c(/C=N/NC(=S)N/N=C2\C(=O)Nc3ccc(Br)cc32)c1	> 50	> 50	–	–	–	–	–	–
Cc1ccc2c(c1)/C(=N/NC(=S)N/N=C/c1c(Cl)cccc1Cl)C(=O)N2	1.79	3.87	–	–	–	–	–	–
Cc1ccc2c(c1)/C(=N/NC(=S)N/N=C/c1ccc3ccccc3c1)C(=O)N2	> 50	> 50	–	–	–	–	–	–
O=C1Nc2ccc(Br)cc2/C1=N/NC(=S)N/N=C/c1ccc2ccccc2c1	> 50	> 50	–	–	–	–	–	–
Cc1ccc2c(c1)/C(=N/NC(=S)N/N=C/c1ccccn1)C(=O)N2	3.15	2.12	5.28	7.89	189.6	12.93	24.22	2.52
O=C1Nc2ccc(Br)cc2/C1=N/NC(=S)N/N=C/c1c(Cl)cccc1Cl	3.53	6.73	–	–	–	–	–	–
Cc1ccc2c(c1)/C(=N/NC(=S)N/N=C/c1ccccc1Br)C(=O)N2	> 50	> 50	–	–	–	–	–	–
Cc1ccc(O)c(/C=N/NC(=S)N/N=C2\C(=O)Nc3ccc(C)cc32)c1	> 50	> 50	–	–	–	–	–	–
O=C1Nc2ccc(Br)cc2/C1=N/NC(=S)N/N=C/c1cc2ccccc2c2ccccc12	> 50	> 50	–	–	–	–	–	–
Cc1ccc2c(c1)/C(=N/NC(=S)N/N=C/c1ccc(-c3ccccc3)cc1)C(=O)N2	> 50	> 50	–	–	–	–	–	–
COc1cccc2c1C(=O)c1c(O)c3c(c(O)c1C2=O)C[C@@](O)(C(=O)CO)C[C@@H]3O[C@H]1C[C@H](N)[C@H](O)[C@H](C)O1 [DOXORUBICIN]	2.05	3.04	–	–	–	–	–	–
O=c1[nH]cc(F)c(=O)[nH]1 [FLUOROURACIL]	–	–	5.21	8.86	237.9	12.96	20.17	1.6
